From patent publication US10285989B2, “Pyrimidinone amide compounds as PDE2 inhibitors” (Merck Sharp & Dohme Corp., priority 2015, dated 2019)

Molecular target: human PDE2A1 (Homo sapiens (Human), UniProt O00408)
Experiment: PDE2 IMAP FP inhibition assay, human PDE2A1 (selectivity panel format)
Format: biochemical
Conditions: Lab B; read-out: Human PDE2 Ki (nM) - Lab B
Protocol: Selectivity for PDE2, as compared to other PDE families, was assessed using the IMAP® technology. Human PDE10A2 enzyme was prepared from cytosolic fractions of transiently transfected HEK cells.
A Labcyte POD 810 (Labcyte, Sunnyvale, Calif.) was used to dispense 200 nL from each well of the titration plate to make eleven copies of the assay plate for each titration, one copy for each PDE enzyme. A solution of each enzyme (dilution from aliquots, sufficient to produce 20% substrate conversion) and a separate solution of FAM-labeled cAMP or FAM-labeled cGMP from Molecular Devices (Sunnyvale, Calif., product # R7506 or cGMP#R7508), at a final concentration of 50 nM were made in the assay buffer (10 mM Tris HCl, pH 7.2, 10 mM MgCl2, 0.05% NaN3 0.01% Tween-20, and 1 mM DTT). Note that the substrate for PDE2 is 50 nM FAM cAMP containing 1000 nM of cGMP. The enzyme and the substrate were then added to the assay plates in two consecutive additions of 10 μL and then shaken to mix. The reaction was allowed to proceed at room temperature for 60 minutes. A binding solution was then made from the kit components, comprised of 80% Solution A, 20% Solution B and binding reagent at a volume of 1/600 the total binding solution. The enzymatic reaction was stopped by addition of 60 μL of the binding solution to each well of the assay plate. The plates were sealed and shaken for 10 seconds. The plates were incubated at room temperature for one hour, then the parallel and perpendicular fluorescence was measured using a Tecan Genios Pro plate reader (Tecan, Switzerland). […] The intrinsic PDE2 inhibitory activity of a compound which may be used in accordance with the present invention may be determined by these assays. […]

Sequence of human PDE2A1 (O00408 other isoform, or with tags, fused parts or gaps): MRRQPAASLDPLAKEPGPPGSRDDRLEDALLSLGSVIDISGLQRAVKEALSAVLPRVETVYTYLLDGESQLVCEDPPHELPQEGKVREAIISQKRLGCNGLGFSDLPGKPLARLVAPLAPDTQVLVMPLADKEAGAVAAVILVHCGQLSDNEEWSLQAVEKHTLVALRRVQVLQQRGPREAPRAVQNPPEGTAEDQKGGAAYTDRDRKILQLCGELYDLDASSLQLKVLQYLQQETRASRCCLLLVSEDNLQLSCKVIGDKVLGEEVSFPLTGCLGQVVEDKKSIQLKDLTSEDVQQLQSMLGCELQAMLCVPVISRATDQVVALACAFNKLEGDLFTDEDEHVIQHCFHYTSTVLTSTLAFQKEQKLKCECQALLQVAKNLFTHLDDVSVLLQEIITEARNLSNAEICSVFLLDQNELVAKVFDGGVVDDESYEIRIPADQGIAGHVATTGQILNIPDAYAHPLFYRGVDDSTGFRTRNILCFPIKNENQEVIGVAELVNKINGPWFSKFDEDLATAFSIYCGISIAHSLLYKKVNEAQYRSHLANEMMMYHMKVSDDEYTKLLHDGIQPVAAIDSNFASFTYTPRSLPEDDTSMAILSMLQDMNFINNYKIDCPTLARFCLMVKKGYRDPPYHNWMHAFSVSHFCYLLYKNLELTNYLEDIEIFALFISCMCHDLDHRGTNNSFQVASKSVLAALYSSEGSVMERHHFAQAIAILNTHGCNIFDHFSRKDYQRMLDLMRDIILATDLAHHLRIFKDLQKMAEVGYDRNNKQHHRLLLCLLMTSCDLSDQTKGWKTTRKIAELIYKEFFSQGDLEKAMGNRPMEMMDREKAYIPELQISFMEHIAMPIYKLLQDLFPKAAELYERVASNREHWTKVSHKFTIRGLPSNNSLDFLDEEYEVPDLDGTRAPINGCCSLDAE

| SMILES | Ki |
| --- | --- |
| CN(C)c1nc(C(=O)N[C@H]2COCc3cc(C(F)(F)F)ccc32)cc(=O)[nH]1 [Example 198, 2-(dimethylamino)-6-oxo-N-[(4R)-7-(trifluoromethyl)-3,4-dihydro-1H-isochromen-4-yl]-1,6-dihydropyrimidine-4-carboxamide] | 863 nM |
| CCC(C)(NC(=O)c1cc(=O)[nH]c(N(C)C)n1)c1ccc(C(F)(F)F)cc1F (single isomer, unassigned) [Example 129, (S)- or (R)-2-(dimethylamino)-N-{1-[2-fluoro-4-(trifluoromethyl)phenyl]-1-methylpropyl}-6-oxo-1,6-dihydro-pyrimidine-4-carboxamide] | 5.5 nM |
| CN(C)c1nc(C(=O)NC(c2ccc(S(F)(F)(F)(F)F)cc2F)C(C)(C)C)cc(=O)[nH]1 (single isomer, unassigned) [Example 127, (S)- or (R)-2-(dimethylamino)-N-{1-[2-fluoro-4-(pentafluoro-λ^6-sulfanyl)phenyl]-2,2-dimethylpropyl}-6-oxo-1,6-dihydropyrimidine-4-carboxamide] | 527 nM |
| CN(C)c1nc(C(=O)N[C@@H](c2ccc(OC(F)(F)F)cc2Cl)C(C)(C)O)cc(=O)[nH]1 [Example 210, N-{(1S)-1-[2-chloro-4-(trifluoromethoxy)phenyl]-2-hydroxy-2-methylpropyl}-2-(dimethylamino)-6-oxo-1,6-dihydropyrimidine-4-carboxamide] | 0.54 nM |
| CN(C)c1nc(C(=O)NC(C)(C)c2ccc(C(F)F)c(F)c2)cc(=O)[nH]1 [Example 69, N-{1-[4-(difluoromethyl)-3-fluorophenyl]-1-methylethyl}-2-(dimethylamino)-6-oxo-1,6-dihydropyrimidine-4-carboxamide] | 10 nM |
| CC(C)[C@@H](NC(=O)c1cc(=O)[nH]c(N(C)C)n1)c1ccc(C(F)F)c(F)c1 [Example 65, N-{(1R)-1-[4-(difluoromethyl)-3-fluorophenyl]-2-methylpropyl}-2-(dimethylamino)-6-oxo-1,6-dihydropyrimidine-4-carboxamide] | 2.2 nM |
| CN(C)c1nc(C(=O)NC2(c3ccc(C(F)(F)F)cc3)COC2)cc(=O)[nH]1 [Example 212, 2-(dimethylamino)-6-oxo-N-{3-[4-(trifluoromethyl)phenyl]oxetan-3-yl}-1,6-dihydropyrimidine-4-carboxamide] | 9.2 nM |
| CN(C)c1nc(C(=O)N[C@H]2CCCc3cc(C(F)(F)F)ccc32)cc(=O)[nH]1 [Example 204, 2-(dimethylamino)-6-oxo-N-[(1S)-6-(trifluoromethyl)-1,2,3,4-tetrahydronaphthalen-1-yl]-1,6-dihydropyrimidine-4-carboxamide] | 129 nM |
| CC[C@@H](NC(=O)c1cc(=O)[nH]c(N(C)C)n1)c1ccc(C(F)F)c(F)c1 [Example 68, N-{(1R)-1-[4-(difluoromethyl)-3-fluorophenyl]propyl}-2-(dimethylamino)-6-oxo-1,6-dihydropyrimidine-4-carboxamide] | 12 nM |
| C[C@@H](NC(=O)c1cc(=O)[nH]c(N(C)C)n1)c1ccc(C(C)(F)F)cc1 [Example 74, N-{(1R)-1-[4-(1,1-difluoroethyl)phenyl]ethyl}-2-(dimelhylamino)-6-oxo-1,6-dihydropyrimidine-4-carboxamide] | 3.9 nM |
| CC(NC(=O)c1cc(=O)[nH]c(N(C)C)n1)c1ccc(C2(C(F)(F)F)CC2)cc1 (single isomer, unassigned) [Example 126, (R)- or (S)-2-(dimethylamino)-6-oxo-N-[1-{4-[1-(trifluoromethyl)cyclopropyl]phenyl}ethyl]-1,6-dihydropyrimidine-4-carboxamide] | 16 nM |
| CN(C)c1nc(C(=O)NC2(c3ccc(OC(C)(C)C)cc3)CC2)cc(=O)[nH]1 [Example 50, N-[1-(4-tert-butoxyphenyl)cyclopropyl]-2-(dimethylamino)-6-oxo-1,6-dihydropyrimidine-4-carboxamide] | 27 nM |
